Source: patent publication US4374857A, “Method of inhibiting L-tryptophan to serum albumin binding” (Her Majesty the Queen in right of Canada, as represented by …, priority 1982, dated 1983)
Entries after “also recorded” stand apart in the source; their conditions may differ.

Target: T1, human serum albumin (Homo sapiens, UniProt P02768)
T1 construct: purchased Sigma, St. Louis, MO
Assay: Equilibrium dialysis of 14C-L-TRP binding to human serum albumin in presence of ligands (Scatchard plots)
Conditions: for effect on L-TRP binding to albumin: one molar equivalent of ligand; for effect on L-TRP binding capacity of albumin: second and third molar equivalents of ligand; for reduction of the affinity (Ka) of L-TRP for albumin: two moles of ligand per mole albumin, equilibrium dialysis, 37° C., pH 7.4
Method: Human serum albumin (Fraction V) was purchased from Sigma, St. Louis, MO. The protein was defatted with activated charcoal according to Chen, R. F. (1967), J. Biol. Chem 242: 173-181 and monomeric albumin purified as previously described in Soltys, B. J. and Hsia, J. C. (1977), J. Biol. Chem. 252: 4043-4048. Protein concentration was determined by absorption of ultraviolet light, assuming E279 nm^1% =5.30 according to Clark, P., Rachinsky, M. R. and Foster, J. F. (1962), J. Biol. Chem. 237: 2509-2513. The sodium salt of cis-parinaric acid was dissolved in 1×10^-4 Malbumin in Ringer's buffer. The Ringer's buffer contained 110 mM NaCl, 5 mM KCl, 1.2 mM MgSO4, 1.2 mM KH2 PO4 and 10 mM Na2 HPO4 at a pH of 7.4 at 37° C. L-tryptophan, stearate and bilirubin were also purchased from Sigma, St. Louis, MO. cis-parinaric acid was purchased from Molecular Probes Inc., Plano, TX. L-[side chain-3 -^14 C]-tryptophan (^14 C-L-TRP) was purchased from New England Nuclear, Boston, Mass. Fatty acids and bilirubin were dissolved in albumin solution essentially as previously described in Soltys, B. J. and Hsia, J. C. (1977), J. Viol. Chem. 252: 4043-4048. Briefly, fatty acid or bilirubin (sodium salt) in methanol was dried under vacuum in dim light to form a thin film in a small glass vial. The albumin solution was added to the vial and gently blended on a Vortex mixer until optically clear.
Equilibrium dialysis cells (approximately 200 μl total capacity) with injection/sampling ports were used. Dialysis membranes (Canlab, Toronto, Ont), previously boiled in distilled water, were placed on one half-cell and then the two half-cells were bolted together. 100 ul of albumin (1×10^-4 M), or its ligand complex was added to one side of the dialysis cells, while 100 μl of a solution of ^14 C-L-TRP was added to the other side.
The cells were sealed with tape and incubated with slight oscillation at 37±0.5° C. in a jacketed incubator (Model 3314, Forma Scientific, Marietta, OH). The cells contained total amount of L-TRP varying from 0.5 to 20 times the number of moles of albumin. After six hours incubation, 25 μl samples were drawn from the albumin side and the buffer side of each cell. These were counted in 6 ml plastic scintillation vials (Canlab) containing 5 ml Aquasol (New England Nuclear) in a liquid scintillation counter (LS 9000, Beckman, Irvine, CA). A quench curve was constructed to correct for quenching of counts by bilirubin.
The equation for the Scatchard plot is
where n is the number of binding sites and Ka is the apparent association constant. Thus the r-intercept is n and the r/c-intercept is nK (a measure of binding capacity), while the negative slope yields the Ka.

T1 sequence (P02768 25-609): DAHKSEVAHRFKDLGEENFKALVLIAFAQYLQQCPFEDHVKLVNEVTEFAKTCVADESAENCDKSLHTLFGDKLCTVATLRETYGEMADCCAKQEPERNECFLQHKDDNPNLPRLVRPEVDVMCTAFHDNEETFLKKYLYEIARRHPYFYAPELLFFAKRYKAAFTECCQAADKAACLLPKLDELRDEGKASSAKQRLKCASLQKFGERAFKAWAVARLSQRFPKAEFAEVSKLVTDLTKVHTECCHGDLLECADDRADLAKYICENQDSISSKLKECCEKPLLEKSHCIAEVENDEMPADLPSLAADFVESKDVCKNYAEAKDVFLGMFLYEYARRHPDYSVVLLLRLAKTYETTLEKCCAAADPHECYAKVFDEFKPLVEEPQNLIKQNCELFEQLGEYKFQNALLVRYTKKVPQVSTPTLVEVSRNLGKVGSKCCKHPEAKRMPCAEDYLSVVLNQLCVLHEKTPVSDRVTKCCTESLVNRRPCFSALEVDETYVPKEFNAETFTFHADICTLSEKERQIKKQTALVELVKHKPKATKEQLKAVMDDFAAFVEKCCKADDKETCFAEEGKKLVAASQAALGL

Structure (SMILES)	number of primary binding sites on human serum albumin (Scatchard plot without competing ligand (FIG. 1))	effect on L-TRP binding to albumin	effect on L-TRP binding capacity of albumin	displacement of albumin-bound tryptophan (2:1 ligand-to-albumin ratio)	effect on specific (primary site) L-TRP binding capacity of albumin (4.0 moles of ligand per mole albumin)	inhibitory effect on L-TRP binding capacity of albumin (higher molar ratios (2.0 to 4.0) of ligand)	reduction of the affinity (Ka) of L-TRP for albumin
N[C@@H](Cc1c[nH]c2ccccc12)C(=O)O [L-TRP, L-tryptophan]	one						
C=CC1=C(C)/C(=C/c2[nH]c(Cc3[nH]c(/C=C4\NC(=O)C(C)=C4C=C)c(C)c3CCC(=O)O)c(CCC(=O)O)c2C)NC1=O [bilirubin, reference compound]		did not affect; also recorded: little effect	progressive inhibition				
CC\C=C/C=C/C=C/C=C\CCCCCCCC(=O)O [cis-parinaric acid, cis, trans, trans, cis-9,11,13,15-octadecatetraenoic acid]		strong inhibitory effect	abolished	up to 90%	completely blocked; also recorded: completely abolished	most effective	80%
CCCCCCCCCCCCCCCCCC(=O)O [stearate, reference compound]							20%
